Results from the Kinase Knowledgebase extract (Sharma et al. 2016).

Each compound was assayed against EGFR (human) (UniProt P00533).
EGFR (human), sequence (P00533 whole entry, looked up): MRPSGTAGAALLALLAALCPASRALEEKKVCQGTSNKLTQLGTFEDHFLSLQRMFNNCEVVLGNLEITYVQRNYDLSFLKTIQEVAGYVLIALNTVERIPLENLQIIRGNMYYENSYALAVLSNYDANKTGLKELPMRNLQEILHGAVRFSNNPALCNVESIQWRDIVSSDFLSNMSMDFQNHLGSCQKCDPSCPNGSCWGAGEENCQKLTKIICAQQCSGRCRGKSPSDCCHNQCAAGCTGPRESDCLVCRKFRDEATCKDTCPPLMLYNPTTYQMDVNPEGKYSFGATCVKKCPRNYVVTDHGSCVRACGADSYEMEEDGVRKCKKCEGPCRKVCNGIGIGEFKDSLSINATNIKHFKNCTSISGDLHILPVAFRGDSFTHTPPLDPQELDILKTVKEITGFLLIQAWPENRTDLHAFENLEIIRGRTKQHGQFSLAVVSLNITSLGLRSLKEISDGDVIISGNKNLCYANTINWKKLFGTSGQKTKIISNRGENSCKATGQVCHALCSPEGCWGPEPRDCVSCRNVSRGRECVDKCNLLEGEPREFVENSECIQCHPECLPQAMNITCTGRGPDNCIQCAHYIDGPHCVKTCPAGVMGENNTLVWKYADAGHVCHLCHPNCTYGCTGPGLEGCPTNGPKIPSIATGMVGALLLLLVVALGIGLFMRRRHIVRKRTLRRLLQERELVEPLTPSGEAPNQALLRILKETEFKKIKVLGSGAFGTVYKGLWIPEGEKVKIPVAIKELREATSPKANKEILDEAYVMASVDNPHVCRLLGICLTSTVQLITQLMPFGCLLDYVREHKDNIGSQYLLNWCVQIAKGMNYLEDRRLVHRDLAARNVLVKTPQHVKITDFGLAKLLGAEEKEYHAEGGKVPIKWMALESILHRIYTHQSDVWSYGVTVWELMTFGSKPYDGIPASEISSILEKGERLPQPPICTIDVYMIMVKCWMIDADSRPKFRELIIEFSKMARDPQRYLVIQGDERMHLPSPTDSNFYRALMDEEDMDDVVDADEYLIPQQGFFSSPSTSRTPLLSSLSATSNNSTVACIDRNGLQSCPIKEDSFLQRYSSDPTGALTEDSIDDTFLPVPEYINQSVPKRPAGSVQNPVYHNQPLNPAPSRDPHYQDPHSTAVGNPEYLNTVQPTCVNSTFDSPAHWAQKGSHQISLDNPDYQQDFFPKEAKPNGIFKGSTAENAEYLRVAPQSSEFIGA

IC50, > 10 µM:
CCOC(=O)Nc1ccc(Nc2ncnc3cc(OC)c(OC)cc23)cc1
COc1cc2ncnc(Nc3ccc(NC(=O)Nc4ccccc4)cc3)c2cc1OC
COc1ccc(NC(=O)Nc2ccc(Oc3ncnc4cc(OC)c(OC)cc34)cc2)cc1
CCCCNC(=O)Nc1ccc(Oc2ncnc3cc(OC)c(OC)cc23)cc1
COc1cc2ncnc(Oc3ccc(NC(=O)NC4CCCCC4)cc3)c2cc1OC
COc1cc2ncnc(Oc3ccc(NC(=O)Nc4ccc5ccccc5c4)cc3)c2cc1OC
CCCCOc1cc2c(Nc3ccc(NC(=O)OCC)c(C)c3)ncnc2cc1OCCN(CC)CC
CCCC(=O)Nc1ccc(Nc2ncnc3cc(OC)c(OC)cc23)cc1C
COc1cc2ncnc(Oc3ccc(NC(=O)Nc4ccc(F)cc4F)cc3)c2cc1OC
CCOC(=O)Nc1ccc(Nc2ncnc3cc(OCCN(CC)CC)c(OC)cc23)cc1C
COc1cc2ncnc(Oc3cccc(NC(=O)Nc4ccccc4)c3)c2cc1OC
COc1cc2ncnc(Oc3ccc(F)c(Cl)c3)c2cc1OC
COc1cc2ncnc(Oc3ccc(NC(=O)Nc4ccccc4)cc3)c2cc1OC
CCOC(=O)Nc1ccc(Nc2ncnc3cc(OC)c(OCCN(CC)CC)cc23)cc1C
COC(=O)Nc1ccc(Oc2ncnc3cc(OC)c(OC)cc23)cc1
COc1ccc(NC(=O)Nc2cccc(Oc3ncnc4cc(OC)c(OC)cc34)c2)cc1
COc1cc2ncnc(Nc3ccc(NC(=O)Nc4ccc(F)c(Cl)c4)cc3)c2cc1OC
COc1cc2ncnc(Oc3ccc(NC(=O)Nc4ccc(F)c(Cl)c4)cc3)c2cc1OC
CCCCC(=O)Nc1ccc(Nc2ncnc3cc(OC)c(OC)cc23)cc1C
CCOC(=O)Nc1ccc(Nc2ncnc3cc(OCCN(CC)CC)c(OC)cc23)cc1Cl
COc1cc2ncnc(Oc3ccc(NC(=O)Nc4ccc(Br)cc4)cc3)c2cc1OC
CCOC(=O)Nc1ccc(Oc2ncnc3cc(OC)c(OC)cc23)cc1
